What was measured:
[1] = tested on: Recombinant human c-Cbl (aa 47-435); experiment: c-Cbl Biochemical Assay (TR-FRET); details: ratio from the Cbl-b and c-Cbl TR-FRET biochemical assays
Description: c-Cbl Biochemical Assay (TR-FRET)
Recombinant human c-Cbl (aa 47-435) was expressed in E coli, purified and biotinylated in vitro. The protein was diluted to 12 nM in freshly prepared assay buffer consisting of 50 mM HEPES, pH 7.0, 100 mM NaCl, 5 mM MgCl2, 0.01% Triton-X 100, 0.01% BSA and 1 mM DTT. Recombinant human Src (aa 254-536)-GSSGSS-Zap-70 (aa 281-297) fusion protein was expressed in E coli and purified. Protein was diluted in assay buffer to 5-20 nM and ATP was added to 1 mM. Recombinant human UBE2D2(C85K) was expressed in E coli, purified and ubiquitinated and Bodipy labelled in vitro. Protein was diluted to 200 nM in assay buffer without MgCl2 (or Cisbio PPI buffer). Streptavidin-Terbium was added to 2 nM and EDTA to 10 mM, to provide a binding assay mix. Compounds were dissolved in DMSO and diluted to prepare a ten-point half log dilution series. 100 nl of each compound concentration was dispensed in duplicate in a 384 well black assay plate using acoustic dispensing. Wells for maximum signal controls received 100 nl of DMSO only and wells for minimum controls received 100 nl of a reference inhibitor compound at a final assay concentration of 100 mM to produce 100% inhibition. 5 μl of diluted c-Cbl enzyme was added to all wells of the assay plate and incubated at RT for 30 min. The enzyme assay was initiated by addition of 5 d of Src-Zap/ATP mix to all wells, and the plate incubated at RT for 60-90 min. The enzyme reaction was terminated and the binding reaction was initiated by adding 10p of binding assay mix to all wells and incubating the plate at RT for 60 min prior to assay read. Final assay conditions consisted of 6 nM c-Cbl. 2.5-10 nM Src-Zap70, 0.5 mM ATP. 1% (v/v) DMSO (enzyme reaction) and 100 nM UBE2D2(C85K)-Ub-FL-BODIPY, 5 mM EDTA, 1 nM Streptavidin-Tb (binding reaction). The HTRF assay signal was measured at 520 nm on an Envision plate reader, with reference signal at 485 or 620 nm. Data was normalized using maximum and minimum assay controls: % Inhibition=100−(100*((maximum control)−unknown)/(maximum control−minimum control)). A 4-parameter dose-response equation was used to fit the normalized dose-response data and derive an IC50 for test compounds.

[2] = target: T1, Recombinant human Cbl-b (aa 36-427) (Homo sapiens, UniProt Q13191); experiment: Cbl-b Biochemical Assay (TR-FRET); details: 6 nM Cbl-b, 1-2.5 nM Src-Zap70, 0.5 mM ATP; HTRF signal at 520 nm
T1 construct: Recombinant human Cbl-b (aa 36-427) was expressed in E coli; biotin (biotinylated in vitro); made in house; host or cells: E. coli
T1 sequence (Q13191 36-427): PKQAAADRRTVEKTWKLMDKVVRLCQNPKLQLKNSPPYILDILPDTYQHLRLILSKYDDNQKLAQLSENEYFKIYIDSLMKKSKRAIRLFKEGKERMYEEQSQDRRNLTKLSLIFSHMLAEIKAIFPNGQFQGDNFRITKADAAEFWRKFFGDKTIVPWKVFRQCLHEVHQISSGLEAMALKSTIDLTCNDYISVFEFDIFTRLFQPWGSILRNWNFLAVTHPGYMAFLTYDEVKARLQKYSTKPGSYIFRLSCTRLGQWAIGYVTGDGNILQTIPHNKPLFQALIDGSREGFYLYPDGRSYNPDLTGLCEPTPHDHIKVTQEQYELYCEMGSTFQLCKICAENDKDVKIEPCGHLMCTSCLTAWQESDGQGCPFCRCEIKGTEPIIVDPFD
Description: Cbl-b Biochemical Assay (TR-FRET)
Recombinant human Cbl-b (aa 36-427) was expressed in E coli, purified and biotinylated in vitro. The protein was diluted to 12 nM in freshly prepared assay buffer consisting of 50 mM HEPES, pH 7.0, 100 mM NaCl, 5 mM MgCl2, 0.01% Triton-X 100, 0.01% BSA and 1 mM DTT. Recombinant human Src (aa 254-536)-GSSGSS-Zap-70 (aa 281-297) fusion protein was expressed in E coli and purified. Protein was diluted in assay buffer to 2-5 nM and supplemented with ATP to 1 mM. Fluorescein-BODIPY labeled UBED2D(C85K)-Ub was prepared by conjugating ubiquitin (Ub) labeled at its N-terminus with Fluorescein-BODIPY maleimide (ThermoFisher Catalog no B10250) to E coli expressed and purified UBED2D(C85K) [see Dou et al Nature Structural and Molecular Biology 8: 982-987, 2013]. Recombinant human UBE2D2(C85K) was expressed in E coli, purified and ubiquitinated and Bodipy labelled in vitro. Protein was diluted to 200 nM in assay buffer without MgCl2 (or Cisbio PPI buffer). Streptavidin-Terbium was added to 2 nM and EDTA to 10 mM, to provide a binding assay mix. Compounds were dissolved in DMSO and diluted to prepare a ten-point dilution series. 100 nl of each compound concentration was dispensed in duplicate in a 384 well black assay plate using acoustic dispensing. Wells for maximum signal controls received 100 nl of DMSO only and wells for minimum signal controls received 100 nl of a reference inhibitor compound at a final assay concentration of 100 mM to produce 100% inhibition. 5 μl of diluted Cbl-b enzyme was added to all wells of the assay plate and incubated at RT for 30-60 min. The enzyme assay was initiated by addition of 5 μl of Src-Zap/ATP mix to all wells, and the plate incubated at RT for 60 min. The enzyme reaction was terminated and the binding reaction was initiated by adding 10p of binding assay mix to all wells and incubating the plate at RT for 60 min prior to assay read. Final assay conditions consisted of 6 nM Cbl-b, 1-2.5 nM Src-Zap70, 0.5 mM ATP, 1% (v/v) DMSO (enzyme reaction) and 100 nM UBE2D2(C85K)-Ub-FL-BODIPY, 5 mM EDTA, 1 nM Streptavidin-Tb (binding reaction). The HTRF assay signal was measured at 520 nm on an Envision plate reader, with reference signal at 485 or 620 nm. Data was normalized using maximum and minimum assay controls: % Inhibition=100−(100*((maximum control)−unknown)/(maximum control−minimum control)). A 4-parameter dose-response equation was used to fit the normalized dose-response data and derive an IC50 for test compounds.

Row | Structure (SMILES) | Cbl-b/c-Cbl Selectivity [1] | IC50 [2] [nM]
1 | C[C@H]1CCCN(Cc2cc(C(F)(F)F)c3oc(-c4cccc([C@H](c5nncn5C)C5CCC5)c4)nc3c2)C1 (single isomer, unassigned) [I-33] | 10 | < 200
2 | C[C@H]1CCCN(Cc2cc(C(F)(F)F)c3oc(-c4cccc([C@H](c5nncn5C)[C@H]5C[C@@H](C(F)(F)F)C5)c4)nc3c2)C1 (single isomer, unassigned) [I-59] | 19 | < 200
3 | CCNc1cc(-c2cc(C#N)ccc2-c2nncn2C)cc(-c2nc3cc(CNCC4(C#N)CCCC4)cc(C(F)(F)F)c3o2)n1 [I-4] | 8 | 200 to 5000
4 | CC(C)NCc1cc(C(F)(F)F)c2oc(-c3cccc([C@]4(c5nncn5C)C[C@@H](C)C4)c3)nc2c1 [I-5, Isopropyl[(2-{3-[(1r,3s)-3-methyl-1-(4-methyl-1,2,4-triazol-3-yl)cyclobutyl]phenyl}-7-(trifluoromethyl)-1,3-benzoxazol-5-yl)methyl]amine] | 12 | 200 to 5000
5 | CO[C@H]1CCCN(Cc2cc(C(F)(F)F)c3oc(-c4cccc([C@]5(c6nncn6C)C[C@@H](C)C5)c4)nc3c2)C1 [I-6, 5-{1[(3S)-3-Methoxypiperidin-1-yl]methyl}-2-{3-[(1r,3s)-3-methyl-1-(4-methyl-1,2,4-triazol-3-yl)cyclobutyl]phenyl}-7-(trifluoromethyl)-1,3-benzoxazole] | 10 | 200 to 5000
6 | CO[C@@H]1CCCN(Cc2cc(C(F)(F)F)c3oc(-c4cccc([C@]5(c6nncn6C)C[C@@H](C)C5)c4)nc3c2)C1 [I-7] | 12 | 200 to 5000
7 | Cn1cnnc1[C@]1(c2cccc(-c3nc4cc(CN5CCC6(CC6)C5)cc(C(F)(F)F)c4o3)c2)C[C@H](C)C1 [I-9, 5-{5-Azaspiro[2.4]heptan-5-ylmethyl}-2-{3-[(1r,3s)-3-methyl-1-(4-methyl-1,2,4-triazol-3-yl)cyclobutyl]phenyl}-7-(trifluoromethyl)-1,3-benzoxazole] | 18 | < 200
8 | CN(Cc1cc(C(F)(F)F)c2oc(-c3cccc([C@]4(c5nncn5C)C[C@@H](C)C4)c3)nc2c1)CC1CCC1 [I-10, 1-Cyclobutyl-N-methyl-N-((2-(3-((1s,3s)-3-methyl-1-(4-methyl-4H-1,2,4-triazol-3-yl)cyclobutyl)phenyl)-7-(trifluoromethyl)benzo[d]oxazol-5-yl)methyl)methanamine] | 10 | < 200
9 | Cn1cnnc1-c1cc(F)ccc1-c1cc(NCCC#N)nc(-c2nc3cc(CN4CCC5(CC5)C4)cc(C(F)(F)F)c3o2)c1 [I-12, 3-{[6-(5-{5-azaspiro[2.4]heptan-5-ylmethyl}-7-(trifluoromethyl)-1,3-benzoxazol-2-yl)-4-[4-fluoro-2-(4-methyl-1,2,4-triazol-3-yl)phenyl]pyridin-2-yl]amino}propanenitrile] | 7 | < 200
10 | Cn1cnnc1-c1cc(F)ccc1-c1cc(NCCC#N)nc(-c2nc3cc(CO)cc(C(F)(F)F)c3o2)c1 [I-14] | 7 | 200 to 5000
11 | Cn1cnnc1-c1ccc(C#N)cc1-c1cc(NCCC#N)nc(-c2nc3cc(CNCC(C)(C)O)cc(C(F)(F)F)c3o2)c1 [I-15, 3-{2-[(2-Cyanoethyl)amino]-6-(5-{[(2-hydroxy-2-methylpropyl)amino]methyl}-7-(trifluoromethyl)-1,3-benzoxazol-2-yl)pyridin-4-yl}-4-(4-methyl-1,2,4-triazol-3-yl)benzonitrile] | 7 | < 200
12 | Cn1cnnc1-c1ccc(C#N)cc1-c1cc(NCCC#N)nc(-c2nc3cc(CN4CCC5(CC5)C4)cc(C(F)(F)F)c3o2)c1 [I-16, 3-[2-(5-{5-azaspiro[2.4]heptan-5-ylmethyl}-7-(trifluoromethyl)-1,3-benzoxazol-2-yl)-6-[(2-cyanoethyl)amino]pyridin-4-yl]-4-(4-methyl-1,2,4-triazol-3-yl)benzonitrile] | 7 | 200 to 5000
13 | Cn1cnnc1-c1ccc(C#N)cc1-c1cc(NCC2(CC#N)CC2)nc(-c2nc3cc(CN[C@@H]4CCC[C@@H]4O)cc(C(F)(F)F)c3o2)c1 [I-27] | 1 | < 200
14 | Cn1cnnc1-c1cc(F)ccc1-c1cc(NC[C@@H](O)CC#N)nc(-c2nc3cc(CN4CCC5(CC5)C4)cc(C(F)(F)F)c3o2)c1 [I-29] | 14 | < 200
15 | C[C@H]1CCCN(Cc2cc(C(F)(F)F)c3oc(-c4cccc([C@@H](c5nncn5C)C5CCC5)c4)nc3c2)C1 [I-34] | 4 | > 5000
16 | C[C@H]1CCCN(Cc2cc(C(F)(F)F)c3oc(-c4cccc(C(c5nncn5C)C5CCC5)c4)nc3c2)C1 (stereo partly shown) [I-48] | 9 | < 200
17 | CN(Cc1cc(C(F)(F)F)c2oc(-c3cc(-c4cc(C#N)ccc4-c4nncn4C)cc(NCC4(CC#N)CC4)n3)nc2c1)[C@@H]1CCC[C@@H]1O [I-49] | 3 | < 200
18 | Cn1cnnc1-c1ccc(C#N)cc1-c1cc(NC[C@@H](O)CC#N)nc(-n2cc3c(C(F)(F)F)cc(CN4CCC5(CCC5)C4)cn3c2=O)c1 [I-50, (S)-3-(2-(6-((6-Azaspiro[3.4]octan-6-yl)methyl)-3-oxo-8-(trifluoromethyl)imidazo[1,5-a]pyridin-2(3H)-yl)-6-((3-cyano-2-hydroxypropyl)amino)pyridin-4-yl)-4-(4-methyl-4H-1,2,4-triazol-3-yl)benzonitrile] | 21 | < 200
19 | C[C@H]1CCCN(Cc2cc(C(F)(F)F)c3oc(-c4cccc(C(c5nncn5C)C5COC5)c4)nc3c2)C1 (stereo partly shown) [I-51] | 7 | 200 to 5000
20 | C[C@H]1CCCN(Cc2cc(C(F)(F)F)c3oc(-c4cccc([C@H](c5nncn5C)C5COC5)c4)nc3c2)C1 [I-52] | 7 | 200 to 5000
21 | C[C@H]1CCCN(Cc2cc(C(F)(F)F)c3oc(-c4cccc([C@@H](c5nncn5C)C5COC5)c4)nc3c2)C1 [I-53] | 1 | > 5000
22 | Cn1cnnc1[C@@H](c1cccc(-c2nc3cc(CN4CCC5(CCC5)C4)cc(C(F)(F)F)c3o2)c1)[C@H]1C[C@H](C(F)(F)F)C1 [I-61] |  | > 5000
